{"source": "patent US20060078535A1", "about": "“Anticancer compounds and methods” (The Regents of the University of Michigan, priority 2004, published 2006)", "molecules": {"B1": {"name": "Ac-PHSCNGGK(biotin)-NH2 (peptide)", "peptide": "Ac-PHSCNGG-{K(biotin)-NH2}", "modifications": "also: further groups not given here", "notes": "also called biotinylated PHSCN peptide"}}, "key": {"[1]": {"tested_on": "metastatic disease", "details": "human, in vivo", "method": "Livant et al., “The PHSCN Sequence As An Anti-Invasive For Human Prostate Carcinoma Cells And As An Anti-Tumorigenic And Anti-Metastatic Agent For Rat Prostate Cancer” Cancer Research 60:309-320 (2000). […] In another embodiment, however, PHSCN (SEQ ID NO:86) peptide may also induce apoptosis. Furthermore, thrice-weekly PHSCN (SEQ ID NO:86) peptide intravenous doses (0.1 to 0.5 mg/kg) prevent cancer progression in metastatic ovarian cancer and metastatic prostate cancer patients in the Phase I clinical trial, for over a 6 to 10 month period."}, "[2]": {"tested_on": "DU 145 human prostate carcinoma", "details": "mouse, in vivo; cited from earlier work"}, "[3]": {"tested_on": "MatLyLu (MLL) cells", "assay": "SU-ECM invasion assay, rat MatLyLu (MLL) prostate carcinoma cells", "format": "cell-based", "details": "10% FCS, varying concentrations", "method": "Adult Strongylocentrotus purpuratus sea urchins were obtained from Pacific BioMarine, and their embryos were cultured to the early pluteus stage in artificial sea water at 15° C. SU-ECM were prepared from them by treatment with nonionic detergent and strerilized by dilution in the appropriate media. […]\n(§1) Invasion assays were coded and scored blindly by microscopic examination under phase contrast at 200- and 400-fold magnification. Each cell contacting an SU-ECM was scored for its position relative to the exterior or interior surfaces. […] The minimum viability of the cells in each assay was always ascertained at the time of assay by determining the fraction of spread, adherent cells on the bottom of each well scored.\n(§2) An invasion frequency is defined as the fraction of cells in contact with basement membranes which were located in their interiors at the time of assay. […] Invasion frequencies were determined multiple times for each cell type assayed. For each type of cell assayed the mean and standard deviation of the invasion frequencies were calculated. […]"}, "[4]": {"tested_on": "keratinocytes", "assay": "SU-ECM invasion by keratinocytes", "format": "cell-based", "details": "serum-free SU-ECM", "text": "Since, during wound reepithelialization, keratinocytes migrate through the connective tissue of the provisional matrix to “wall off” portions of the wound, as well as through the adjacent stroma, it is not surprising that they are also stimulated to migrate through the matrix of SU-ECM invasion substrates by the PHSRN (SEQ ID NO: 1) sequence. […] Recruitment of fibroblasts or monocytes/macrophages whose paracrine, regulatory effects on a variety of neighboring cells are required for the early stages of wound healing is contemplated as a highly efficient and effective way to stimulate the cascade of regulatory interactions involved in wound healing because these cells will secrete the active factors or cytokines in the correct temporal sequences and spatial locations to ensure their optimal activities. Because it efficiently induces keratinocyte migration through the extracellular matrix in vitro, the PHSRN (SEQ ID NO: 1) peptide is also likely to stimulate wound reepithelialization directly. The use of the PHSRN (SEQ ID NO: 1) peptide or structurally related molecules according to the present invention is to stimulate the entry of cells such as fibroblasts and monocyte/macrophages into the provisional matrix of a wound, so that the entering cells themselves secrete the factors and cytokines active in inducing or potentiating wound healing. […]"}, "[5]": {"tested_on": "DU-145 metastatic prostate cancer cells", "assay": "Invasion of fibronectin-depleted Matrigel by DU-145 cells", "format": "cell-based, human", "details": "0.5 μl/ml peptide added to gelatin-panned Matrigel", "method": "This example describes a purification approach for removal of plasma fibronectin (and/or cellular fibronectin) from a substrate (Matrigel). In this example, removal was attempted by successive panning on gelatin. Eight wells of 24-well plate were coated with a 2% gelatin solution (the gelatin was obtained from Becton Dickinson Labware, Catalog #11868). The wells were filled with the gelatin solution which had been heated to 50° C. and incubated for 3 minutes. Then the solution was removed and the wells were allowed to air dry. Following drying, the wells were thoroughly rinsed with ddH2O followed by two rinses with PBS. The plates were again allowed to dry; thereafter they were stored at −20° C. until use. Matrigel was thawed on ice and then added to one of the wells of a gelatin-coated plate (between 800 μl and 1 ml of Matrigel was added to a well of a 24-well plate). The plate was placed in a bucket of ice in a […] room on an orbital shaker where the Matrigel was incubated in the well for two hours (although overnight incubation can be used). Following the incubation, the Matrigel was moved from the first well to a second well and then incubated for two hours under the same conditions. This process was repeated until the Matrigel had been incubated on all eight wells of the gelatin-coated plate.\nFollowing the depletion of the Matrigel, it was collected in Eppendorf tubes. […]"}, "[6]": {"tested_on": "SUM-52 PE breast cancer cells", "assay": "SU-ECM invasion assay, SUM-52 PE breast cancer cells", "format": "cell-based, human", "details": "SUM-52 cells", "method": "(§3) Adult Strongylocentrotus purpuratus sea urchins were obtained from Pacific BioMarine, and their embryos were cultured to the early pluteus stage in artificial sea water at 15° C. SU-ECM were prepared from them by treatment with nonionic detergent and strerilized by dilution in the appropriate media.\n(§4) Cells were harvested by rinsing in Hanks' balanced salt solution, followed by brief treatment with 0.25% trypsin, 0.02% EDTA, and pelleting and resuspension in the appropriate medium with or without 5% FCS at a density of about 50,000 cells per ml. […]\nas §1, §2"}, "[7]": {"tested_on": "normal, neonatal fibroblasts", "assay": "Invasion of gelatin- and antibody-depleted Matrigel by fibroblasts", "format": "cell-based", "details": "gelatin plus antibody panned Matrigel", "method": "Anti-fibronectin antibody-coated wells: Wells of a 24-well plate were coated with an anti-fibronectin antibody. A mouse monoclonal antibody to human fibronectin was obtained from Oncogene Science (Catalog #CP13). Each well was incubated with 1 ml of antibody at a concentration of 30 μl/ml for 2 hours at room temperature. Each well was then incubated with a solution of 3% BSA in PBS for 2 hours at room temperature. Following the two incubation periods, the wells were thoroughly washed with PBS and stored at −20° C. until use.\nDepleting Matrigel of Fibronectin: Matrigel was panned over eight gelatin-coated wells (as described above in Example 2) to remove most of the fibronectin and its fragments. Thereafter, the Matrigel was placed in the antibody-coated wells to remove any remaining fragments of fibronectin which contain the cell-binding domain but not the gelatin-binding domain. The Matrigel was incubated in an ice bucket on an orbital shaker at 4° C. for 2 hours. Once the Matrigel was depleted, it was collected in Eppendorf tubes. The firbonectin-depleted Matrigel was plated on a 48-well plate (150 μl/well), sterilized under a UV light for 10 minutes and incubated at 37° C. overnight. The Matrigel formed a gel and the following day, cells were added to the wells. […]"}, "[8]": {"tested_on": "DU-145 prostate cancer cells", "assay": "SU-ECM invasion assay, DU-145 prostate cancer cells", "format": "cell-based, human", "details": "DU-145 cells", "method": "as §3, §4, §1, §2"}, "[9]": {"tested_on": "neonatal, human fibroblasts", "assay": "SU-ECM basement membrane invasion by fibroblasts", "format": "cell-based", "details": "with or without serum as stated", "text": "Since, during wound reepithelialization, keratinocytes migrate through the connective tissue of the provisional matrix to “wall off” portions of the wound, as well as through the adjacent stroma, it is not surprising that they are also stimulated to migrate through the matrix of SU-ECM invasion substrates by the PHSRN (SEQ ID NO: 1) sequence. […]\nas §1, §2"}, "[10]": {"molecular_target": "T1, immobilized α5β1 integrin (UniProt P08648 42-1049; P05556 21-798)", "T1 construct": "also called α5β1 integrin receptor; α5β1 integrin fibronectin receptor", "T1 sequence (P08648 42-1049, chain 1 of 2)": "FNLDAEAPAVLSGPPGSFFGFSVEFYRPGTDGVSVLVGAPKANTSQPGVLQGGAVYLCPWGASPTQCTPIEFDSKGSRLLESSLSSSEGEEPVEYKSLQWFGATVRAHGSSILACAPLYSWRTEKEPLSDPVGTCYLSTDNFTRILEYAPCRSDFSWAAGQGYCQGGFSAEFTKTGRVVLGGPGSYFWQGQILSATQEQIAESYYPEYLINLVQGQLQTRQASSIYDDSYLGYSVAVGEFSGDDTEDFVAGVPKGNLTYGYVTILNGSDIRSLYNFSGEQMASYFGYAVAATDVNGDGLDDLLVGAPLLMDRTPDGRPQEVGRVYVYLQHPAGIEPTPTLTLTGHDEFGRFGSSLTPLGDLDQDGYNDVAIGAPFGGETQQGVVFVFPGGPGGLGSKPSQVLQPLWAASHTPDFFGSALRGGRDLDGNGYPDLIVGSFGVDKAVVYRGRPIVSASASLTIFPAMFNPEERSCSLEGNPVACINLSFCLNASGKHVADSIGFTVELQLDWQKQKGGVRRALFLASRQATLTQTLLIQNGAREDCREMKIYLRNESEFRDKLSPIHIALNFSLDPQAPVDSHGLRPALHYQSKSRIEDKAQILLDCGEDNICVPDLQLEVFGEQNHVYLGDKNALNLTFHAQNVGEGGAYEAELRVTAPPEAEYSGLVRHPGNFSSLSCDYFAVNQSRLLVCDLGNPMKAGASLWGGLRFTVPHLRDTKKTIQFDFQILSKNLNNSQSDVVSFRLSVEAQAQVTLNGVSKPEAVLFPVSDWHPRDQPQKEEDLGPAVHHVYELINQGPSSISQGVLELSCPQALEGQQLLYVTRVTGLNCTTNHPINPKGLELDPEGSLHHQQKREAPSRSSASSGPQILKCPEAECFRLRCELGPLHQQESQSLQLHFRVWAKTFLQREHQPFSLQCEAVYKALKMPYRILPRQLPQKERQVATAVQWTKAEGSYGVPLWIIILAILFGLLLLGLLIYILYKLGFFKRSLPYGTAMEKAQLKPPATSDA", "T1 sequence (P05556 21-798, chain 2 of 2)": "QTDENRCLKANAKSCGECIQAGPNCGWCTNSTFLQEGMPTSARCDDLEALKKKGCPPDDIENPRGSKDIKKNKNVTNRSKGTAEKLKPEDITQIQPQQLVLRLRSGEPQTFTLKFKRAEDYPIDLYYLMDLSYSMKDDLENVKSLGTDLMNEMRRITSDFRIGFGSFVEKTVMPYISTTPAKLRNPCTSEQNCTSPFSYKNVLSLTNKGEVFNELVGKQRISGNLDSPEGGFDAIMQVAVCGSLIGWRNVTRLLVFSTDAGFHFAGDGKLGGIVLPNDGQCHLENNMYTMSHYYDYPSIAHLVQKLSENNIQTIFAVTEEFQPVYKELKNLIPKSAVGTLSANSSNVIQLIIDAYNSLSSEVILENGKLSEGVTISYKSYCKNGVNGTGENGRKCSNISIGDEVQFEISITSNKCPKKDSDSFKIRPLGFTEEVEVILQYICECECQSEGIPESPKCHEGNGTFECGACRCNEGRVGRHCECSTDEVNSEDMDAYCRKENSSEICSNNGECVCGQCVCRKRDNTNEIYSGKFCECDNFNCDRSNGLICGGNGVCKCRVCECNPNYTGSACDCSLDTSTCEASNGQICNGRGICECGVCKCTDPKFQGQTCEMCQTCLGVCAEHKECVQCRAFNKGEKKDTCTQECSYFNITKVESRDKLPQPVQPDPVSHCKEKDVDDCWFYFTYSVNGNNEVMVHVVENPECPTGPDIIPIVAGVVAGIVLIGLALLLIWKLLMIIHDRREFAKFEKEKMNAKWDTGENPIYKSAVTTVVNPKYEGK", "assay": "saturation binding of PHSCNGGK(biotin) to immobilized α5β1 integrin, read as optical density at 490 nm (FIG. 11)"}}, "note": "Entries after “also recorded” stand apart in the source; their conditions may differ. Where no end group is shown, it is not given here. [ ]: non-standard residue; d: D form. hCys = N[C@@H](CCS)C(=O)O", "data": [{"molecule": "Ac-PHSCN-NH2 (N-terminus and C-terminus assumed) [PHSCN, Pro-His-Ser-Cys-Asn]", "values": [{"measurement": "total treatment-emergent serious adverse events", "setting": "[1]", "value": 11}, {"measurement": "tolerability of treated mice", "setting": "[2]", "value": "no obvious loss of vigor or difficulty in healing"}]}, {"molecule": "PHS(hC)N: homo-cysteine containing peptide (PHS[hCys]N)", "values": [{"measurement": "inhibition of serum-induced invasion", "setting": "[3]", "value": "substantially inhibits invasion at lower concentrations; also recorded: completely inhibits invasion at higher concentrations"}]}, {"molecule": "Pro-His-Ser-Arg-Asn (PHSRN)", "values": [{"measurement": "keratinocyte invasion", "setting": "[4]", "value": "stimulate keratinocyte invasion of serum-free SU-ECM"}, {"measurement": "DU-145 invasiveness on depleted Matrigel", "setting": "[5]", "value": "sufficient to restore the full DU-145 invasiveness"}, {"measurement": "induction of invasion of SU-ECM", "setting": "[6]", "value": "induced to invade the SU-ECM substrate"}, {"measurement": "fibroblast invasiveness on depleted Matrigel", "setting": "[7]", "value": "invasiveness of the fibroblasts could be induced"}, {"measurement": "induction of invasion of SU-ECM", "setting": "[8]", "value": "induced to invade the SU-ECM substrate"}, {"measurement": "fibroblast invasion of SU-ECM basement membranes", "setting": "[9]", "value": "induced with the PHSRN (SEQ ID NO:1) peptide to invade serum-free SU-ECM"}]}, {"molecule": "intact plasma fibronectin: purified bovine plasma fibronectin (Sigma)", "values": [{"measurement": "fibroblast invasion of SU-ECM basement membranes", "setting": "[9]", "value": "fails to stimulate fibroblast invasion"}]}, {"molecule": "B1", "values": [{"measurement": "Kd", "setting": "[10]", "value": 272, "unit": "nM"}]}]}
